Tests used:
ER-α in MCF-7 cells = target: T1, ER-α in MCF-7 cells (Homo sapiens, UniProt P03372); assay: Breast cancer cell ER-α in cell western assay (SP1); format: cell-based; design: endogenous in cells; host or cells: MCF-7; settings: 4 or 24 hr post compound addition; for Emax: MCF7, SP1 antibody, read-out: ER-α In Cell Western Assay (SP1) Max Response; for DC50: SP1 antibody, read-out: ER-α In Cell Western Assay (SP1) IC50
T1 sequence (P03372 1-595): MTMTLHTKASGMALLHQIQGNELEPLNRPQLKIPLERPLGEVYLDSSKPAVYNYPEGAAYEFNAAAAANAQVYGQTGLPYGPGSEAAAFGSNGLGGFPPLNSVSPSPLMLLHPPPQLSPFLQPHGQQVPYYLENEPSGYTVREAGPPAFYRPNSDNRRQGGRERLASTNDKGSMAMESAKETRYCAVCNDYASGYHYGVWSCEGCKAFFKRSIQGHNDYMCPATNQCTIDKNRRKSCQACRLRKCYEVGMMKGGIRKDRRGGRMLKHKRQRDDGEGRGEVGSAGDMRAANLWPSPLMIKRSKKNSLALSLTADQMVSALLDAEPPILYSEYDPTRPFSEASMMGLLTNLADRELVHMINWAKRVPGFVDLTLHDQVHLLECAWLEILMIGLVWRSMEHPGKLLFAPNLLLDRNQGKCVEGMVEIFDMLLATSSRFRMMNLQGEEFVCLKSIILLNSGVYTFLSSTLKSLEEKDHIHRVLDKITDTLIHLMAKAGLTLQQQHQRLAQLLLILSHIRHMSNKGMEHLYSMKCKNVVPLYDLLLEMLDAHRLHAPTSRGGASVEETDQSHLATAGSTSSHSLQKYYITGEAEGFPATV
Protocol: MCF-7 cells were adjusted to a concentration of 200,000 cells per mL in RPMI containing 10% charcoal-stripped FBS and 20 mM HEPES. 16 microliters of the cell suspension (3200 cells) was added to each well of a poly-D-lysine 384 well plate, and the cells were incubated overnight to allow the cells to adhere. The following day an eleven point, serial semilog dilution of each compound was added to the cells in 16 μL at a final concentration ranging from 0.3-0.000003 μM. At 4 or 24 hr post compound addition, the cells were fixed (10% formalin in PBS) for 20 minutes. Cells were permeablized in PBS 0.1% Triton and blocked with LICOR blocking buffer (50 μl/well, 90°). The wells were then incubated overnight at 4° C. with SP1 rabbit monoclonal Ab (Thermo Scientific) diluted 1:1000 in LICOR blocking buffer/0.1% Tween-20. Wells which were treated with blocking buffer with Tween but no antibody were used as a background control. Wells were washed with 0.1% Tween-20/PBS and then incubated in goat anti-rabbit IRDye™ 800CW (LICOR Inc.; 1:1000) and DRAQ5 DNA dye (1:2000 for 2 mM stock) diluted in LICOR blocking buffer containing 0.1% Tween-20 and 0.01% SDS for 60 minutes. Cells were washed (50 μl/well, 5′ each) in 0.1% Tween-20/PBS. Plates were scanned on a LICOR Odyssey infrared imaging system. Integrated intensities in the 800 nm channel and 700 nm channel were measured to determine levels of ER and DNA respectively. Percent ER levels were determined as follows: (Integrated intensity 800 nm sample/integrated intensity 700 nm sample)/(Integrated intensity 800 nm untreated cells/integrated intensity 700 nm untreated cells)×100=% ER levels.

MCF-7 cells = assay: Breast cancer cell viability assay (CellTiter-Glo, 5 days); format: cell-based; settings: 5 days' compound exposure; for IC50: Homo sapiens, MCF7, 120 h
Protocol: MCF-7 cells were adjusted to a concentration of 20,000 cells per mL in RPMI containing 10% FBS and 20 mM HEPES. 16 microliters of the cell suspension (320 cells) was added to each well of a 384 well plate, and the cells were incubated overnight to allow the cells to adhere. The following day an eleven point, serial semilog dilution of each compound was added to the cells in 16 μL at a final concentration ranging from 0.3-0.000003 μM. After 5 days' compound exposure, 16 μL of CellTiter-GLo (Promega, Madison Wis.) was added to the cells the relative luminescence units (RLUs) of each well was determined CellTiter-Glo added to 32 μL of medium without cells was used to obtain a background value. The Percent viability of each sample was determined as follows: (RLU sample-RLU background/RLU untreated cells-RLU background)×100=% viability.

Structure (SMILES) | Emax (ER-α in MCF-7 cells) [%] | DC50 (ER-α in MCF-7 cells) [µM] | IC50 (MCF-7 cells) [µM] | MCF7 Viability Assay Max Response (MCF-7 cells)
CC/C(=C(/c1ccc(/C=C/C(=O)O)cc1)c1ccnc2[nH]ncc12)c1ccccc1 [Compound 56, (E)-3-(4-((E)-2-Phenyl-1-(1H-pyrazolo[3,4-b]pyridin-4-yl)but-1-en-1-yl)phenyl)acrylic acid] | ≥ 40 | ≤ 0.1 | > 0.1 | ++ (++ = a single % value ≧ 40%)
CC/C(=C(/c1ccc(/C=C/C(=O)O)cc1)c1ccc2[nH]ncc2c1)c1ccc(N(C)C)cc1 [Compound 62, (E)-3-(4-((E)-2-(4-(Dimethylamino)phenyl)-1-(1H-indazol-5-yl)but-1-en-1-yl)phenyl)acrylic acid] | ≥ 40 | > 0.1 | > 0.1 | ++ (++ = a single % value ≧ 40%)
CC/C(=C(/c1ccc(/C=C/C(=O)O)cc1)c1cnc2[nH]ncc2c1)c1ccccc1 [Compound 67, (E)-3-(4-((E)-2-Phenyl-1-(1H-pyrazolo[3,4-b]pyridin-5-yl)but-1-en-1-yl)phenyl)acrylic acid] | ≥ 40 | > 0.1 | > 0.1 | ++ (++ = a single % value ≧ 40%)
CC/C(=C(/c1ccc(/C=C/C(=O)O)cc1)c1cnc2[nH]ccc2c1)c1ccccc1 [Compound 68, (E)-3-(4-((E)-2-Phenyl-1-(1H-pyrrolo[2,3-b]pyridin-5-yl)but-1-en-1-yl)phenyl)acrylic acid] | ≥ 40 | > 0.1 | > 0.1 | ++ (++ = a single % value ≧ 40%)
CC/C(=C(/c1ccc(/C=C/C(=O)O)cc1)c1ccc2[nH]c(=O)sc2c1)c1ccccc1 [Compound 75, (E)-3-(4-((E)-1-(2-Oxo-2,3-dihydrobenzo[d]thiazol-6-yl)-2-phenylbut-1-en-1-yl)phenyl)acrylic acid] | ≥ 40 |  | > 0.1 | ++ (++ = a single % value ≧ 40%)
CC/C(=C(/c1ccc(/C=C/C(=O)O)cc1)c1cc2cn[nH]c2cn1)c1ccccc1 [Compound 81, (E)-3-(4-((E)-2-Phenyl-1-(1H-pyrazolo[3,4-c]pyridin-5-yl)but-1-en-1-yl)phenyl)acrylic acid] | ≥ 40 | > 0.1 | > 0.1 | ++ (++ = a single % value ≧ 40%)
CC/C(=C(/c1ccc(/C=C/C(=O)O)cc1)c1ccc2[nH]cnc2c1)c1ccccc1 [Compound 83, (E)-3-(4-((E)-1-(1H-Benzo[d]imidazol-5-yl)-2-phenylbut-1-en-1-yl)phenyl)acrylic acid] | ≥ 40 |  | > 0.1 | ++ (++ = a single % value ≧ 40%)
CC/C(=C(/c1ccc(/C=C/C(=O)O)cc1)c1cccc2[nH]nnc12)c1ccccc1 [Compound 88, (E)-3-(4-((E)-1-(1H-Benzo[d][1,2,3]triazol-4-yl)-2-phenylbut-1-en-1-yl)phenyl)acrylic acid] | ≥ 40 | > 0.1 | > 0.1 | ++ (++ = a single % value ≧ 40%)
CC/C(=C(/c1ccc(/C=C/C(=O)O)cc1)c1ccc2c[nH]c(=O)cc2c1)c1ccccc1 [Compound 90, (E)-3-(4-((E)-1-(3-Oxo-2,3-dihydroisoquinolin-6-yl)-2-phenylbut-1-en-1-yl)phenyl)acrylic acid] | ≥ 40 | > 0.1 | > 0.1 | ++ (++ = a single % value ≧ 40%)

Second part, led by results:

Emax (ER-α in MCF-7 cells) [%] | DC50 (ER-α in MCF-7 cells) [µM] | IC50 (MCF-7 cells) [µM] | Structure (SMILES) | MCF7 Viability Assay Max Response (MCF-7 cells)
≥ 40 | ≤ 0.1 | ≤ 0.1 | CC/C(=C(/c1ccc(/C=C/C(=O)O)cc1)c1cccc2[nH]ncc12)c1ccccc1F [Compound 31, (E)-3-(4-((E)-2-(2-Fluorophenyl)-1-(1H-indazol-4-yl)but-1-en-1-yl)phenyl)acrylic acid] | ++ (++ = a single % value ≧ 40%)
≥ 40 | ≤ 0.1 | ≤ 0.1 | CC/C(=C(/c1ccc(/C=C/C(=O)O)cc1)c1ccc2[nH]ncc2c1)c1cccc2ccccc12 [Compound 50, (E)-3-(4-((E)-1-(1H-Indazol-5-yl)-2-(naphthalen-1-yl)but-1-en-1-yl)phenyl)acrylic acid] | ++ (++ = a single % value ≧ 40%)
≥ 40 |  | ≤ 0.1 | CC/C(=C(/c1ccc(/C=C/C(=O)O)cc1)c1ccc2[nH]ccc2c1)c1ccccc1 [Compound 64, (E)-3-(4-((E)-1-(1H-Indol-5-yl)-2-phenylbut-1-en-1-yl)phenyl)acrylic acid] | ++ (++ = a single % value ≧ 40%)
≥ 40 |  | ≤ 0.1 | CC/C(=C(/c1ccc(/C=C/C(=O)O)cc1)c1ccc2[nH]c(=O)oc2c1)c1ccccc1 [Compound 66, (E)-3-(4-((E)-1-(2-Oxo-2,3-dihydrobenzo[d]oxazol-6-yl)-2-phenylbut-1-en-1-yl)phenyl)acrylic acid] | ++ (++ = a single % value ≧ 40%)
≥ 40 | ≤ 0.1 | ≤ 0.1 | O=C(O)/C=C/c1ccc(/C(=C(\c2ccccc2)C2CC2)c2cccc3[nH]ncc23)cc1 [Compound 70, (E)-3-(4-((E)-2-Cyclopropyl-1-(1H-indazol-4-yl)-2-phenylvinyl)phenyl)acrylic acid] | ++ (++ = a single % value ≧ 40%)
≥ 40 | ≤ 0.1 | ≤ 0.1 | O=C(O)/C=C/c1ccc(/C(=C(\c2ccccc2Cl)C2CC2)c2cccc3[nH]ncc23)cc1 [Compound 71, (E)-3-(4-((E)-2-(2-Chlorophenyl)-2-cyclopropyl-1-(1H-indazol-4-yl)vinyl)phenyl)acrylic acid] | ++ (++ = a single % value ≧ 40%)
≥ 40 | ≤ 0.1 | ≤ 0.1 | CC/C(=C(/c1ccc(/C=C/C(=O)O)cc1)c1ccc2[nH]nnc2c1)c1ccc(F)cc1Cl [Compound 72, (E)-3-(4-((E)-1-(1H-Benzo[d][1,2,3]triazol-5-yl)-2-(2-chloro-4-fluorophenyl)but-1-en-1-yl)phenyl)acrylic acid] | ++ (++ = a single % value ≧ 40%)
≥ 40 | ≤ 0.1 | ≤ 0.1 | O=C(O)/C=C/c1ccc(/C(=C(\c2ccc(F)cc2Cl)C2CC2)c2cccc3[nH]ncc23)cc1 [Compound 73, (E)-3-(4-((E)-2-(2-Chloro-4-fluorophenyl)-2-cyclopropyl-1-(1H-indazol-4-yl)vinyl)phenyl)acrylic acid] | ++ (++ = a single % value ≧ 40%)
≥ 40 | ≤ 0.1 | ≤ 0.1 | CC/C(=C(/c1ccc(/C=C/C(=O)O)cc1)c1cc(F)cc2[nH]ncc12)c1ccccc1 [Compound 86, (E)-3-(4-((E)-1-(6-Fluoro-1H-indazol-4-yl)-2-phenylbut-1-en-1-yl)phenyl)acrylic acid] | ++ (++ = a single % value ≧ 40%)
≥ 40 | ≤ 0.1 | ≤ 0.1 | CC/C(=C(/c1ccc(/C=C/C(=O)O)cc1)c1cccc2[nH]nnc12)c1ccc(F)cc1Cl [Compound 89, (E)-3-(4-((E)-1-(1H-Benzo[d][1,2,3]triazol-4-yl)-2-(2-chloro-4-fluorophenyl)but-1-en-1-yl)phenyl)acrylic acid] | ++ (++ = a single % value ≧ 40%)
